Data published in patent publication US20250282844A1, “METHODS FOR CONTROLLING IMMUNE CELL ACTIVITY” (BIOSCEPTRE (AUST) PTY LTD, priority 2021, published 2025).

System: JeKo-1 cells
Assay: Co-culture of T cells (unmodified or expressing nfP2X7 CAR) with JeKo-1 cells, with or without blocking peptide
Type: cell-based
Settings: FIG. 3
Method: More specifically, T cells (either unmodified or expressing nfP2X7 CAR) were cultured with JeKo-1 cells at an ET ratio of 5 to 1. Blocking was performed using peptide variant 2 at 5 μg/mL.
On day 5 of co-culture the cell counts were measured and evaluated for total JeKo-1 cell count. The total number of JeKo-1 cells added in the experiment was 20,000 on day 1 and day 3 of the experiment (therefore the total amount of added cells was 40,000 JeKo-1 per condition).
Addition of the blocking peptide variant 2 at 5 ug/mL reversed this such that after 5 days, 40,000 JeKo-1 cells were present in culture.

DFPGHNYTTRNILPGLNITSTFHKTSGSGKGGGGS (E200_extended peptide 17v12 (35 aa) + linker) [peptide variant 2]
total JeKo-1 cell count (T cells expressing nfP2X7 CAR, ET 5 to 1, peptide at 5 ug/mL, day 5 of co-culture, 40,000 JeKo-1 added in total): 40,000 cells | total JeKo-1 cell count (T cells that do not express nfP2X7 CAR (60,000 cells after 5 days without peptide), effect of adding blocking peptide): not changed
